Test results reported in publication PMC6792352, “Limited Chemical Structural Diversity Found to Modulate Thyroid Hormone Receptor in the Tox21 Chemical Library” (Environmental Health Perspectives, 2019).
Where a name gives a salt, the structure may show the parent alone.

Test: in vitro
Conditions: rat, gh3-tre-luc cells, AC50 (uM) modified / 1000

SMILES	CC50 at 24 h
c1cc(CCCc2ccncc2)ccn1 [4,4'-Propane-1,3-diyldipyridine]	> 90 µM
C=CCC1=C(C)[C@@H](OC(=O)[C@@H]2[C@@H](C=C(C)C)C2(C)C)CC1=O [S-Bioallethrin]	32.6 µM
C#C[C@]1(O)CC[C@H]2[C@@H]3CCc4cc(O)ccc4[C@H]3CC[C@@]21C [17alpha-Ethinylestradiol]	> 90 µM
Cc1cccc(C)c1NC(=O)CN1CCCC1 [Pyrrocaine]	> 50 µM
O=C1OC(=O)c2ccccc21 [Phthalic anhydride]	> 90 µM
Cc1cc(C(F)(C(F)(F)F)C(F)(F)F)ccc1NC(=O)c1cccc(I)c1C(=O)NC(C)(C)CS(C)(=O)=O [Flubendiamide]	> 70 µM
O=S(=O)(O)CCS [Sodium 2-mercaptoethanesulfonate]	> 90 µM
COc1ccc(C)cc1 [1-Methoxy-4-methylbenzene]	> 90 µM
CC(C)=CCl [2,2-Dimethylvinyl chloride]	> 90 µM
O=C(NC(=O)c1c(F)cccc1F)Nc1cc(Cl)c(OC(F)(F)C(F)C(F)(F)F)cc1Cl (stereo not drawn) [Lufenuron]	> 90 µM
CC(=O)OCC=C(C)C [3,3-Dimethylallyl acetate]	> 60 µM
CCCCNCC(O)c1ccc(O)cc1 (stereo not drawn) [Bamethan]	> 50 µM
Brc1ccc(Oc2ccccc2)cc1 [p-Bromodiphenyl ether]	> 90 µM
CCCCCCCCCCCCCCCC(=O)OC[C@@H](O)[C@H]1OC[C@H](O)[C@H]1O [Sorbitan monohexadecanoate]	> 50 µM
Cc1nc2cc(Cl)ccc2[nH]1 [5-Chloro-2-methyl-1H-benzimidazole]	> 90 µM
CCCC/C=C\CCCCCCCCCC=O [(Z)-11-Hexadecenal]	> 90 µM
C/C=C/C(=O)O [2-Butenoic acid]	> 90 µM
CC(C)c1ccc(NC(=O)N(C)C)cc1 [Isoproturon]	> 90 µM
CCN(CC)CCOc1ccc(C(O)(Cc2ccc(Cl)cc2)c2ccc(C)cc2)cc1 (stereo not drawn) [Triparanol]	8.76 µM
O=C(O)c1ccccc1-c1ccc(C(F)(F)F)cc1 [Xenalipin]	> 50 µM

SMILES	CC50 at 24 h
CC(=O)OC/C=C(\C)CCC=C(C)C [Geranyl acetate]	> 90 µM
O=C(N[C@@H](c1ccccc1)[C@@H]1CCCCN1)c1cccc(C(F)(F)F)c1Cl [SSR504734]	19.9 µM
O=C(O)COc1ccc(C(=O)c2cccs2)c(Cl)c1Cl [Ticrynafen]	> 50 µM
C=CC(=O)Nc1cc2c(Nc3ccc(F)c(Cl)c3)ncnc2cc1OCCCN1CCOCC1 [Canertinib]	4.7 µM
Nc1ccc(S(=O)(=O)Nc2ncccn2)cc1 [Sulfadiazine]	> 20 µM
C=CC(=O)OCCn1c(=O)n(CCOC(=O)C=C)c(=O)n(CCOC(=O)C=C)c1=O [(2,4,6-Trioxo-1,3,5-triazinane-1,3,5-triyl)triethane-2,1-diyl trisprop-2-enoate]	4.99 µM
OCC(CO)n1cnc(-c2ccc(F)cc2)c1-c1ccnc(Oc2ccccc2)n1 [SB281832]	> 90 µM
N[C@@H](Cc1c[nH]cn1)C(=O)O [L-Histidine hydrochloride]	> 50 µM
CC(C)=CCOc1ccc(/C=C/C(=O)c2ccc(OCC=C(C)C)cc2OCC(=O)O)cc1 [Sofalcone]	43 µM
C#C[C@]1(O)CC[C@H]2[C@@H]3CCC4=CC(=O)CC[C@@H]4[C@H]3CC[C@@]21CC [Levonorgestrel]	> 90 µM
CCCCCCCCCCCCN(CCCCCCCCCCCC)CCCCCCCCCCCC [Tridodecylamine]	> 90 µM
C=CC(=O)CCCCC [1-Octen-3-one]	> 100 µM
NCCCNCCSP(=O)(O)O [Amifostine]	> 50 µM
C=C[Si](OC(C)=O)(OC(C)=O)OC(C)=O [Ethenylsilanetriyl triacetate]	> 90 µM
CO[Si](C)(OC)OC [Trimethoxymethylsilane]	> 90 µM
S=C=Nc1cccc2ccccc12 [alpha-Naphylisothiocyanate]	> 90 µM
COC(=O)c1ccc(I)cc1S(=O)(=O)NC(=O)Nc1nc(C)nc(OC)n1 [Iodosulfuron-methyl-sodium]	> 90 µM
FC(F)(F)c1ccc(Cl)c(Cl)c1 [1,2-Dichloro-4-(trifluoromethyl)benzene]	> 90 µM
Nc1ccccn1 [2-Aminopyridine]	> 90 µM
CCCCCCCCOc1ccc(C(=O)O)cc1 [4-Octyloxybenzoic acid]	> 90 µM

SMILES	CC50 at 24 h
CCCN1CCC[C@H](c2cccc(O)c2)C1 [R-3-PPP hydrochloride]	> 50 µM
CCC/C=C/C=O [(2E)-2-Hexenal]	> 90 µM
COC(=O)[C@@H]1[C@H]2C[C@H]3c4[nH]c5ccccc5c4CCN3C[C@@H]2CC[C@@H]1O [Yohimbine]	> 50 µM
CO[C@@H]1[C@@H](OC(N)=O)[C@@H](O)[C@H](Oc2ccc3c(O)c(NC(=O)c4ccc(O)c(CC=C(C)C)c4)c(=O)oc3c2C)OC1(C)C [Novobiocin sodium]	> 20 µM
CCCC(=O)O[C@]1(C(=O)COC(=O)CC)[C@@H](C)C[C@H]2[C@@H]3CCC4=CC(=O)C=C[C@]4(C)[C@@]3(F)[C@@H](O)C[C@@]21C [Betamethasone butyrate propionate]	> 50 µM
Cc1ccc2c(ccc3ccccc32)c1 [2-Methylphenanthrene]	> 90 µM
CC(C)[N+](C)(CCC(C(N)=O)(c1ccccc1)c1ccccc1)C(C)C [Isopropamide]	> 20 µM
Cc1ccc(NC(=O)N(C)C)cc1NC(=O)N(C)C [3,3'-(4-Methylbenzene-1,3-diyl)bis(1,1-dimethylurea)]	> 90 µM
CC(=O)[C@@]1(O)CC[C@H]2[C@@H]3C=C(Cl)C4=CC(=O)CC[C@]4(C)[C@H]3CC[C@@]21C [Chlormadinone]	> 50 µM
O=c1[nH]c(=O)c2[nH]c(=O)[nH]c2[nH]1 [Sodium urate]	> 50 µM
CC1(C)CCC[C@]2(C)[C@H]3CC(=O)O[C@]3(C)CC[C@@H]12 [(3aR)-(+)-Sclareolide]	64.9 µM
CC[Si](OC(C)=O)(OC(C)=O)OC(C)=O [Ethyltriacetoxysilane]	> 90 µM
CCCCC1C(=O)N(c2ccccc2)N(c2ccc(O)cc2)C1=O (stereo not drawn) [Oxyphenbutazone]	3.72 µM
O=C(O)c1ccc(O)cc1O [2,4-Dihydroxybenzoic acid]	> 90 µM
CCCCCCCCCCCCCC [Tetradecane]	> 90 µM
O=C(N/N=C/c1ccccc1O)c1ccncc1 [Salinazid]	> 50 µM
CN(C)CCCN(C)C [N,N,N',N'-Tetramethyl-1,3-propanediamine]	> 5 µM
Cc1cc(O)c2c(c1)C(=O)c1cccc(O)c1C2=O [Chrysophanic acid]	> 50 µM
N#CC(C#N)=C(C#N)C#N [Tetracyanoethylene]	> 100 µM
OCC1(CO)COC(C(Cl)(Cl)Cl)OC1 [Penthrichloral]	> 50 µM

Same assay, conditions: rat, gh3-tre-luc cells, AC50 (uM) modified / 1000, Tox21_110001=Tox21_111063; viability, 1 nM T3 present, 24 h

SMILES	CC50 at 24 h
CCCC(C)(COC(N)=O)COC(N)=O [Meprobamate]	> 50 µM

Same assay, conditions: rat, gh3-tre-luc cells, AC50 (uM) modified / 1000, Tox21_110001=Tox21_111800; viability, 1 nM T3 present, 24 h

SMILES	CC50 at 24 h
CCOC(=O)/C=C(C)/C=C/C[C@@H](C)CCCC(C)C [(7S)-Hydroprene]	> 50 µM

Same assay, conditions: rat, gh3-tre-luc cells, AC50 (uM) modified / 1000, Tox21_110001=Tox21_200094; viability, 1 nM T3 present, 24 h

SMILES	CC50 at 24 h
C#CC(C)(C)O [2-Methyl-3-butyn-2-ol]	> 90 µM

Same assay, conditions: rat, gh3-tre-luc cells, AC50 (uM) modified / 1000, Tox21_110001=Tox21_200332; viability, 1 nM T3 present, 24 h

SMILES	CC50 at 24 h
CCCC(C)(COC(N)=O)COC(N)=O [Meprobamate]	> 90 µM

Same assay, conditions: rat, gh3-tre-luc cells, AC50 (uM) modified / 1000, Tox21_110001=Tox21_301066; viability, 1 nM T3 present, 24 h

SMILES	CC50 at 24 h
CCOC(=O)/C=C(C)/C=C/C[C@@H](C)CCCC(C)C [(7S)-Hydroprene]	87.1 µM

Same assay, conditions: rat, gh3-tre-luc cells, AC50 (uM) modified / 1000, Tox21_110001=Tox21_301642; viability, 1 nM T3 present, 24 h

SMILES	CC50 at 24 h
CC(C=O)Cc1ccc2c(c1)OCO2 (stereo not drawn)	> 90 µM
